Experiments:
[1] = Metabolic stability in human liver microsomes assessed as clearance preincubated for 5 mins followed by NADPH addition measured for 5 to 90 mins by LC-MS/MS analysis; type: ADME, Microsome; details: time 10-95 min, read-out: CLH
[2] = Metabolic stability in human liver microsomes assessed as half life preincubated for 5 mins followed by NADPH addition measured for 5 to 90 mins by LC-MS/MS analysis; type: ADME, Microsome; details: time 10-95 min
MV4-11 [3] = assay: Antiproliferative activity against human MV4-11 cells
[4] = AUC (0 to infinity) in ICR mouse at 1 mg/kg, iv measured for 5 to 480 mins by LC-MS/MS analysis; type: ADME, organism-based; details: in vivo, time 5-480 min
[5] = Half life in ICR mouse at 1 mg/kg, iv measured for 5 to 480 mins by LC-MS/MS analysis; type: ADME, organism-based; details: in vivo, time 5-480 min
[6] = AUC (0 to t) in ICR mouse at 1 mg/kg, iv measured for 5 to 480 mins by LC-MS/MS analysis; type: ADME, organism-based; details: in vivo, time 5-480 min
[7] = Tmax in ICR mouse at 10 mg/kg, po measured for 5 to 480 mins by LC-MS/MS analysis; type: ADME, organism-based; details: in vivo, time 5-480 min
[8] = Volume of distribution at steady state in ICR mouse at 1 mg/kg, iv measured for 5 to 480 mins by LC-MS/MS analysis; type: ADME, organism-based; details: in vivo, time 5-480 min
[9] = Clearance in ICR mouse at 1 mg/kg, iv measured for 5 to 480 mins by LC-MS/MS analysis; type: ADME, organism-based; details: in vivo, time 5-480 min
[10] = Blood concentration elimination rate constant for the terminal phase in ICR mouse at 1 mg/kg, iv measured for 5 to 480 mins by LC-MS/MS analysis; type: ADME, organism-based; details: time 5-480 min, read-out: LambdaZ (converted)
MV4-11 [11] = assay: Induction of apoptosis in human MV4-11 cells at 0.25 to 10 uM incubated for 72 hrs by Annexin V-FITC/PI staining based flow cytometry (reference value: 43.2 %); type: functional; details: dose 0.25-10 µM
[12] = Half life in ICR mouse at 10 mg/kg, po measured for 5 to 480 mins by LC-MS/MS analysis; type: ADME, organism-based; details: in vivo, time 5-480 min
[13] = Clearance in ICR mouse at 10 mg/kg, po measured for 5 to 480 mins by LC-MS/MS analysis; type: ADME, organism-based; details: in vivo, time 5-480 min
[14] = Drug uptake in ICR mouse plasma at 1 mg/kg, iv measured for 5 to 480 mins by LC-MS/MS analysis; type: ADME, organism-based; details: in vivo, time 5-480 min
[15] = MRT in ICR mouse at 10 mg/kg, po measured for 5 to 480 mins by LC-MS/MS analysis; type: ADME, organism-based; details: in vivo, time 5-480 min
[16] = AUC (0 to t) in ICR mouse at 10 mg/kg, po measured for 5 to 480 mins by LC-MS/MS analysis; type: ADME, organism-based; details: in vivo, time 5-480 min
[17] = MRT in ICR mouse at 1 mg/kg, iv measured for 5 to 480 mins by LC-MS/MS analysis; type: ADME, organism-based; details: in vivo, time 5-480 min
[18] = Cmax in ICR mouse at 10 mg/kg, po measured for 5 to 480 mins by LC-MS/MS analysis; type: ADME, organism-based; details: in vivo, time 5-480 min
[19] = Blood concentration elimination rate constant for the terminal phase in ICR mouse at 10 mg/kg, po measured for 5 to 480 mins by LC-MS/MS analysis; type: ADME, organism-based; details: time 5-480 min, read-out: LambdaZ (converted)
[20] = Cmax in ICR mouse at 1 mg/kg, iv measured for 5 to 480 mins by LC-MS/MS analysis; type: ADME, organism-based; details: in vivo, time 5-480 min
[21] = Oral bioavailability in ICR mouse at 10 mg/kg measured for 5 to 480 mins by LC-MS/MS analysis; type: ADME, organism-based; details: in vivo, time 5-480 min
[22] = AUC (0 to infinity) in ICR mouse at 10 mg/kg, po measured for 5 to 480 mins by LC-MS/MS analysis; type: ADME, organism-based; details: in vivo, time 5-480 min
MV4-11 [23] = assay: Induction of apoptosis in human MV4-11 cells incubated for 72 hrs by Annexin V-FITC/PI staining based flow cytometry; type: functional, cell-based; details: dose 0.25-10 µM
[24] = Drug uptake in ICR mouse plasma at 10 mg/kg, po measured for 5 to 480 mins by LC-MS/MS analysis; type: ADME, organism-based; details: in vivo, time 5-480 min
[25] = Tmax in ICR mouse at 1 mg/kg, iv measured for 5 to 480 mins by LC-MS/MS analysis; type: ADME, organism-based; details: in vivo, time 5-480 min
HCT-116 = assay: Antiproliferative activity against human HCT-116 cells; type: functional, cell-based
HL-60 = assay: Antiproliferative activity against human HL-60 cells; type: functional, cell-based

With `Cc1nnc2ccc(-c3nc4cnc(N5CCOCC5)cn4c3Nc3ccc(C(F)(F)F)cc3)cn12` the microsomal CLint [1] was 4.52 µL/min/mg, the half-life [2] was 2.56 h and the IC50 (MV4-11 [3]) was 290 nM.

`CCc1nnc2ccc(-c3nc4cnc(-c5cnn(C)c5)cn4c3Nc3ccc(F)cc3Br)cn12` showed an AUC(0-inf) [4] of 4660 ng·h/mL, a half-life [5] of 1.06 h and an AUC(0-t) [6] of 4640 ng·h/mL. For the same compound, the Tmax [7] was 0.5 h, the Vdss [8] was 3 10^-4(mg/kg)/(ng/ml) and the CL [9] was 2 10^-4(mg/kg)/(ng/ml)/hr. It also gave a k el [10] of 0.000181 s⁻¹, an Activity (MV4-11 [11]) of 83.2% and a microsomal CLint [1] of 0.3 µL/min/mg. The half-life [12] was 2.26 h, the CL [13] was 0.001 (mg/kg)/(ng/ml)/hr and the Drug uptake [14] was “Active”. For the same compound, the MRT [15] was 3.9 h, the AUC(0-t) [16] was 18300 ng·h/mL and the MRT [17] was 1.32 h. The Cmax [18] was 5480 ng/mL, the half-life [2] was 38.6 h and the k el [19] was 9.72e-05 s⁻¹. For the same compound, the Cmax [20] was 4410 ng/mL, the bioavailability [21] was 44.8% and the AUC(0-inf) [22] was 20900 ng·h/mL. For the same compound, the Activity (MV4-11 [23]) was “Dose-dependent-effect; Activity Was Better Than (+)-Jq1”, the IC50 (MV4-11 [3]) was 20 nM and the Drug uptake [24] was “Active”. It also gave a Tmax [25] of 4.8 min.

In the case of `Cc1sc2c(c1C)C(c1ccc(Cl)cc1)=N[C@@H](CC(=O)OC(C)(C)C)c1nnc(C)n1-2`, the IC50 (HCT-116) is reported as 2700 nM, the IC50 (HL-60) is reported as 3150 nM and the Activity (MV4-11 [23]) is reported as “Dose-dependent-effect”. For the same compound, the IC50 (MV4-11 [3]) was 30 nM.

Work on `Cc1nnc2ccc(-c3nc4cnc(N5CCOCC5)cn4c3Nc3cccc(F)c3)cn12` yielded an IC50 (MV4-11 [3]) of 870 nM.

With `COc1ccc(Nc2c(-c3ccc4nnc(C)n4c3)nc3cnc(N4CCOCC4)cn23)cc1` the IC50 (HCT-116) was 4490 nM and the IC50 (MV4-11 [3]) was 560 nM.

With `CCc1nnc2ccc(-c3nc4cnc(N5CCN(C)CC5)cn4c3Nc3ccc(F)c(Cl)c3)cn12` the IC50 (MV4-11 [3]) was 740 nM.

In the case of `Cc1nnc2ccc(-c3nc4cnc(-c5cnn(C)c5)cn4c3Nc3ccc(F)cc3)cn12`, the IC50 (HL-60) is reported as 8250 nM and the IC50 (MV4-11 [3]) is reported as 4900 nM.
